The source made the active and inactive calls.
Legend:
X-box-binding protein 1 = X-box-binding protein 1 (Homo sapiens, UniProt P17861); format: functional, Cricetulus griseus;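 also: confirmatory dose-response counter-screen serving a CHOP assay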
Vero = test: cells; format: functional; conditions: Chlorocebus sabaeus
[1] = A Cell Based Secondary Assay To Explore Cytotoxicity of Compounds that Sensitize Mycobacterium Tuberculosis to Beta-Lactam Antibiotics.; format: functional
HeLa = test: viability loss in HeLa cells – cell-based, 24 h, cherry-picked samples, cytotoxicity control, dose response (AID 504726); format: functional; conditions: Homo sapiens;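 also: potency for cytotoxicity as loss of luminescence signal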
[2] = biological target: Signal transducer and activator of transcription 3 (Homo sapiens, UniProt P40763); test: STAT3 activation with BCL3 mRNA and toxicity – cell-based, […], BCL3 qPCR, cytotoxicity, late-stage follow-up, panel member STAT3 Activation (AID 2049)
[3] = biological target: Induced myeloid leukemia cell differentiation protein Mcl-1 (Homo sapiens, UniProt Q07820); format: functional
Beta-galactosidase = Beta-galactosidase (Escherichia coli, UniProt Q8VNN2); test: detection-enzyme interference by beta-gal modulators – biochemical, E. coli enzyme, set 3, artefact control for CCR6 antagonist project, dose response (AID 504712); format: functional
Hexokinase HKDC1 = biological target: T1, Hexokinase HKDC1 (Homo sapiens, UniProt Q2TB90); test: inhibition of HKDC1 glucose phosphorylation – biochemical, W721R variant, dose response (AID 504729); format: functional
T1 sequence (Q2TB90 whole entry): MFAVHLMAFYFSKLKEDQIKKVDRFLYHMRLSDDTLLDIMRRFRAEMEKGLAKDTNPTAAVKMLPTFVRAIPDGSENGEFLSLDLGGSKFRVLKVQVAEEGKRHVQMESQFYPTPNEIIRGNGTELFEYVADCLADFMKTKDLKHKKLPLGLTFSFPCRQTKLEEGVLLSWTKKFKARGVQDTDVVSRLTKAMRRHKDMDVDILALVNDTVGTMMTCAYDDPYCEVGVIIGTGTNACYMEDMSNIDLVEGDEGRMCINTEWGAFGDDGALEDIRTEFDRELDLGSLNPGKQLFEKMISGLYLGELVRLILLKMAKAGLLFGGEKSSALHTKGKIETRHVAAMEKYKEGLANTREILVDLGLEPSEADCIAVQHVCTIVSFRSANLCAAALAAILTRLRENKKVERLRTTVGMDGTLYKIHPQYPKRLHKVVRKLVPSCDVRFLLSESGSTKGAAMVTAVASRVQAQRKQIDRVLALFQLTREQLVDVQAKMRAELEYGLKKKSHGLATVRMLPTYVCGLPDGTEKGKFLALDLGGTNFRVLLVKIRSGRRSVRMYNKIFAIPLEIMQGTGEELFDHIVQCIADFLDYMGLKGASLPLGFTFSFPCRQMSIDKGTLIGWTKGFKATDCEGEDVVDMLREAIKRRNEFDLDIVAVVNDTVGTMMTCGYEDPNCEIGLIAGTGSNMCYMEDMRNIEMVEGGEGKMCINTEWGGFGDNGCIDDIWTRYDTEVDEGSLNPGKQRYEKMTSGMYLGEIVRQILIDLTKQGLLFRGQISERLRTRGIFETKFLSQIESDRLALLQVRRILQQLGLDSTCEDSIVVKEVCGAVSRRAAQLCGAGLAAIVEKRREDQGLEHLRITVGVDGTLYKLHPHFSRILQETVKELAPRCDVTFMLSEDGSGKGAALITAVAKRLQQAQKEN

[4] = biological target: Cystic fibrosis transmembrane conductance regulator/Golgi-associated PDZ and coiled-coil motif-containing protein (Homo sapiens, UniProt P13569+Q9HD26); test: potency against CAL PDZ-peptide interaction – biochemical, fluorescence polarization, Cerulean-tagged CAL PDZ, cherry-picks, dose response (AID 504773)
[5] = biological target: Eukaryotic translation initiation factor 4E (Mus musculus, UniProt P63073); test: blockers of eIF4G binding by eIF4E – biochemical, TR-FRET, dose response (AID 855); format: functional;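 also: potency for disrupting eIF4E binding to eIF4GI seen as loss of FRET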
INS1 = test: INS-1E survival protection against cytokine death – cell-based, luminescence, retest, dose response (AID 449756); format: functional; conditions: Rattus norvegicus;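 also: cell death triggered by IL-1 beta plus TNF-alpha plus IFN-gamma mixture; protective hits raise ATP signal compared with cytokine alone wells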
[6] = HEK-293T cell viability reduction – luminescence, B-cell screen hits, cytotoxicity control for BCR NF-kB inhibitor project, dose response (AID 489021); format: functional, cell-based;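 also: HEK-293T cells carrying an NF-kB luciferase reporter; cells exposed to compound for about 14 hours before viability readout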
[7] = biological target: Polyadenylate-binding protein 1 (Homo sapiens, UniProt P11940); test: blockers of PABP interaction with poly(A) – biochemical, fluorescence polarization, […] (AID 2014)
[8] = biological target: Eukaryotic translation initiation factor 4H (Homo sapiens, UniProt Q15056); test: eIF4H binding inhibition – biochemical, uHTS, fluorescence polarization, translation initiation inhibitor project, primary screen (AID 2012)

Chain of Eukaryotic translation initiation factor 4E (P63073 whole entry): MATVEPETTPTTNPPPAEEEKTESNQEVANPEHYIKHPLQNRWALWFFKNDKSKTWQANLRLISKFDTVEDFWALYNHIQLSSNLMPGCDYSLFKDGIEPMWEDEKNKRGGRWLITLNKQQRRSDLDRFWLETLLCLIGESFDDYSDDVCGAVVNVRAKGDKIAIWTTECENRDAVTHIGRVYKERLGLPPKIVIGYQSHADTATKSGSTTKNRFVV
Chain of Beta-galactosidase (Q8VNN2 whole entry): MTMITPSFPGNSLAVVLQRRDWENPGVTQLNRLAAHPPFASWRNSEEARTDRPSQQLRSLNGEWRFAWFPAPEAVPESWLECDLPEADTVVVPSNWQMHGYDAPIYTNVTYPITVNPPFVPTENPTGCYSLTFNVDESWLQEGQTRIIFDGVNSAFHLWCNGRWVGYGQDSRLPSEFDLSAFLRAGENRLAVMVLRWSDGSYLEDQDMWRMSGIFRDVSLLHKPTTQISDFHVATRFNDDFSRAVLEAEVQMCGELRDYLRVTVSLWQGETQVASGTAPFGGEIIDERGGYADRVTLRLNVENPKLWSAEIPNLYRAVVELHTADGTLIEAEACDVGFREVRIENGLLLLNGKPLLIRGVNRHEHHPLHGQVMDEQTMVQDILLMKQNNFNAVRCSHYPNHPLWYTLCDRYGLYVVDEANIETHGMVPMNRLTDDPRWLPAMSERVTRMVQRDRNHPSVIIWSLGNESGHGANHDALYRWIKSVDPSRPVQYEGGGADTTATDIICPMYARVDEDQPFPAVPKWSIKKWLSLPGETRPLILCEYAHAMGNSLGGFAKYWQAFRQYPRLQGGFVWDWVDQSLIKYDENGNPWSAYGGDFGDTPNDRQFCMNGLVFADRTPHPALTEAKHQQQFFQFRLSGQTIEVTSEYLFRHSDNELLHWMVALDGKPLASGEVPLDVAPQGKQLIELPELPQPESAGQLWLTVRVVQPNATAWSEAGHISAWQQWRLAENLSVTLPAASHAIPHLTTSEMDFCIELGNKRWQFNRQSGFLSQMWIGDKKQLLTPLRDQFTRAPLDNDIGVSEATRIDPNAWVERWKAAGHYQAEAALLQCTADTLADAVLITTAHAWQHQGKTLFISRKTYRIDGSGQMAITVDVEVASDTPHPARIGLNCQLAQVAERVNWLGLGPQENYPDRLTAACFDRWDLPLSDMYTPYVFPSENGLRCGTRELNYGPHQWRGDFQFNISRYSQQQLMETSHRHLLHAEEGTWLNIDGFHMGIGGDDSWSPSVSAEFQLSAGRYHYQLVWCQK
Chain of Polyadenylate-binding protein 1 (P11940 whole entry): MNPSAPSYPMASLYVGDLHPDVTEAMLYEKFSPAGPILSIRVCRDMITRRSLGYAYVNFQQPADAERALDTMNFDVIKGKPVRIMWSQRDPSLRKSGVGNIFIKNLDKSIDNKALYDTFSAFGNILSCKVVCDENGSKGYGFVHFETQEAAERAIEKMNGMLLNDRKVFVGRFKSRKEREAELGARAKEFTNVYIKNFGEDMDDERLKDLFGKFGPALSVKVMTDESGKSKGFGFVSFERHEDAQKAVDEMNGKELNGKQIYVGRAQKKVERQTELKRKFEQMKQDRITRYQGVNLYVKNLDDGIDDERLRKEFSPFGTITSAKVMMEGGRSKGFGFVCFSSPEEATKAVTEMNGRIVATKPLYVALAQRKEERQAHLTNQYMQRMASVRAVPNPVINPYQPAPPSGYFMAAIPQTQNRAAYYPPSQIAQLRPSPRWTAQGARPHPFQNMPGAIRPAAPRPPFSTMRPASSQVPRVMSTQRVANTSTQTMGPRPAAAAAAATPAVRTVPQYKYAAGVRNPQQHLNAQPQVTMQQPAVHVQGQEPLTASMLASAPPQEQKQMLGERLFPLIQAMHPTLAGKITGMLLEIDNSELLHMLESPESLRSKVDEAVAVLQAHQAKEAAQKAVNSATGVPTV
Chain of Induced myeloid leukemia cell differentiation protein Mcl-1 (Q07820 whole entry): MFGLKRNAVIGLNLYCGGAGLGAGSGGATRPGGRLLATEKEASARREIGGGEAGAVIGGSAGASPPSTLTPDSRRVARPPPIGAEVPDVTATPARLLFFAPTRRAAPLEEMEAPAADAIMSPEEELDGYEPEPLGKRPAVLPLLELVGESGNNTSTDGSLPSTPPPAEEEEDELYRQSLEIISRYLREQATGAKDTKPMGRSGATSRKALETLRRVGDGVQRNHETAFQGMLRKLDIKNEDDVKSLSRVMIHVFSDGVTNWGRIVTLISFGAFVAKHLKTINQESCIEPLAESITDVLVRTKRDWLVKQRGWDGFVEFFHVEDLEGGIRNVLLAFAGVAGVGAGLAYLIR
Chain of Signal transducer and activator of transcription 3 (P40763 whole entry): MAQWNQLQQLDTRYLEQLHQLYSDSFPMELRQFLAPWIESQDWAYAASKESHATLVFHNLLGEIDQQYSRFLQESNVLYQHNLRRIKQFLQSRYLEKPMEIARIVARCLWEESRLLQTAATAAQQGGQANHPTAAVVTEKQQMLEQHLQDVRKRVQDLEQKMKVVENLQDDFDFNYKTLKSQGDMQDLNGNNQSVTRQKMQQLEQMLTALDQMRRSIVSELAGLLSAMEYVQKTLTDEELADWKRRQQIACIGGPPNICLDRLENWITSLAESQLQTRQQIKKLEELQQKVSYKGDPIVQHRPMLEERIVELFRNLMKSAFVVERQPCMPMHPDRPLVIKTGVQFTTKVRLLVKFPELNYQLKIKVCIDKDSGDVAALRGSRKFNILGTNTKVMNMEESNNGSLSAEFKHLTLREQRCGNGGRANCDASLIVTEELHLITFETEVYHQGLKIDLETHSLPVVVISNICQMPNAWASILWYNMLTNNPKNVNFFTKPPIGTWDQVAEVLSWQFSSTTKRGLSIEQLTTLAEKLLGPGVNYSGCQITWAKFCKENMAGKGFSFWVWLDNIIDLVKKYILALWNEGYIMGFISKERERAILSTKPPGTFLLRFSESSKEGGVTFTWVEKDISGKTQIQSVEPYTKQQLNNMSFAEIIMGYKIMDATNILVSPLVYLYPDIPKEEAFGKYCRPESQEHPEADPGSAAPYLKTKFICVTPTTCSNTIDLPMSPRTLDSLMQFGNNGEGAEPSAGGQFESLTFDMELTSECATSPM
Chain of Cystic fibrosis transmembrane conductance regulator/Golgi-associated PDZ and coiled-coil motif-containing protein (P13569 whole entry, other chains not shown): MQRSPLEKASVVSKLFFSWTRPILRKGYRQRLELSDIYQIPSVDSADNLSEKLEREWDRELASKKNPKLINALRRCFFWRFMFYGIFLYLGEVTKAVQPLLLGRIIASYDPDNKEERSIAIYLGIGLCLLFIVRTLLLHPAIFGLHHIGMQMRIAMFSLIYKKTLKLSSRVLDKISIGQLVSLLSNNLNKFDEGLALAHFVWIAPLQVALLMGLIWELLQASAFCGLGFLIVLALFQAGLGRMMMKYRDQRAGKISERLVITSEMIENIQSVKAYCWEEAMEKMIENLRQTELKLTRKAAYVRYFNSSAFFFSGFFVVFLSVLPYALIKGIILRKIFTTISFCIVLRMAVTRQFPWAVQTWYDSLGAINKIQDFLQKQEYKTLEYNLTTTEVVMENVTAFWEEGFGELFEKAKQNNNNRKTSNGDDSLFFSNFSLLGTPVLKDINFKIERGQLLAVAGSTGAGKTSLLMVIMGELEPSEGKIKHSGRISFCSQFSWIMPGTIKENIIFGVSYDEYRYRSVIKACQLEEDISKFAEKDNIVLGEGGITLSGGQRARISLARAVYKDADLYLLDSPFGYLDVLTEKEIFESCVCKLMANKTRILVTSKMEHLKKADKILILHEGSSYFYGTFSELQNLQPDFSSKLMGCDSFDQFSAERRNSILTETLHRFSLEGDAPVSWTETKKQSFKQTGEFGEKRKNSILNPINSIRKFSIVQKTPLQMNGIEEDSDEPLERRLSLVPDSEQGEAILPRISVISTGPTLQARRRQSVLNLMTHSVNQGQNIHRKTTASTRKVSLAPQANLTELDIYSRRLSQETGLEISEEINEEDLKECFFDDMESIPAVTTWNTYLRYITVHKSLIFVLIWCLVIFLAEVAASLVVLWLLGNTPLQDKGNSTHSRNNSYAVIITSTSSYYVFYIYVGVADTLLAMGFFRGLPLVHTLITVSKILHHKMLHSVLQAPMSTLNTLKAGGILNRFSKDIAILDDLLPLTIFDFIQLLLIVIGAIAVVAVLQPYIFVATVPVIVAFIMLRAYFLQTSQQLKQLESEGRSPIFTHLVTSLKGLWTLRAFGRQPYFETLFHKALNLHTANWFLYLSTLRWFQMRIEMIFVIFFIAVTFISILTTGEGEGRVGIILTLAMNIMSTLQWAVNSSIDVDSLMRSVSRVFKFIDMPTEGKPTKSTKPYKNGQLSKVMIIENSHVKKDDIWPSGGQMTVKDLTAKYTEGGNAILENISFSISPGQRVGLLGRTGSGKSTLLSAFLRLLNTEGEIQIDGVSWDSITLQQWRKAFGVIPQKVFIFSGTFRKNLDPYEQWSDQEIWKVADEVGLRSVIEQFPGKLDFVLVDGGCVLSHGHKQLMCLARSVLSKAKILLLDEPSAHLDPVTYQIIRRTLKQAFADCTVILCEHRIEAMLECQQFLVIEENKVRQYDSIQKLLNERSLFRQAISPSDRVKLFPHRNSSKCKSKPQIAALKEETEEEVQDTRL
Chain of X-box-binding protein 1 (P17861 whole entry): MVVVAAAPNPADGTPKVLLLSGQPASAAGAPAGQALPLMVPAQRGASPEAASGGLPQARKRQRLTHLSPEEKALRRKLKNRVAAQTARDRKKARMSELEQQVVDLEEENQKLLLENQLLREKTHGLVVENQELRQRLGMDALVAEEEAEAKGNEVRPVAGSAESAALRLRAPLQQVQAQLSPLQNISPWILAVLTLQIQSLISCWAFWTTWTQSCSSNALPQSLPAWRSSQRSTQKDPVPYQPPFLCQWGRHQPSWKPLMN

**Q.** With COCCn1/c(=N/C(=O)/C=C/c2cccs2)sc2cc(NC(C)=O)ccc21 as the molecule, how does the “Absolute IC50 (XBP1)” value (X-box-binding protein 1) read?
**A.** Its value is 10 µM.

**Q.** With Cn1c(=O)c2ccccc2n2c(CCl)nnc12 as the molecule, how does the CC50 (Vero) read?
**A.** The CC50 was 18 µM (active).

**Q.** What about the CC50 [1] of the same molecule?
**A.** Its CC50 is 30.5 µM (active).

**Q.** For CCCN(CCC)C(=O)C1c2ccccc2Oc2ccccc21, which AC50 (HeLa) is on record?
**A.** The AC50 was 81.4 µM (active).

**Q.** With COc1cc(NC(=O)c2cc(C3CC3)on2)ccc1Br as the molecule, how does the EC50 [2] read?
**A.** The EC50 was > 5.57 µM (inactive).

**Q.** Which IC50 [3] does the source give for CCc1ccc(S(=O)(=O)/N=C2/C=C(Sc3nc[nH]n3)C(=O)c3ccccc32)cc1 here?
**A.** Its IC50 is 5.9 µM (active).

**Q.** What about the IC50 (Beta-galactosidase) of the same molecule?
**A.** The IC50 was > 66.6 µM (inactive).

**Q.** And the IC50 (Hexokinase HKDC1)?
**A.** Its IC50 is 2.46 µM (active).

**Q.** What about the AC50 [4] of the same molecule?
**A.** The AC50 was 23.1 µM (active).

**Q.** And the IC50 [5]?
**A.** The IC50 was > 64 µM (inactive).

**Q.** And the AC50 (INS1)?
**A.** The AC50 was 7.93 µM (active).

**Q.** Which IC50 [6] does the source give for CCCCCOc1ccc(NC(=O)C(=O)NCCCn2ccnc2)cc1 here?
**A.** The IC50 was > 80 µM (inactive).

**Q.** Which IC50 [7] does the source give for O=C(C[n+]1ccccc1)c1ccc(Cl)cc1 here?
**A.** Its IC50 is 5.96 µM (active).

**Q.** And the IC50 [8]?
**A.** The IC50 was > 100 µM (inactive).

From ChEMBL document CHEMBL1201862, “PubChem BioAssay data set” (2004)
